Paper PMC9539280 (Advanced Science, 2022)
Counter-ions that a name gives are not always drawn. Like-named read-outs stand apart in the source and are kept apart here.

Key:
[1] = cited from earlier work
hCMs [2] = test: Mitochondrial (MitoSox) and intracellular (DCFH-DA) ROS measurement in hCMs; type: cell-based, human; settings: remdesivir 10 μM, 4 or 6 days; for could alter the level of ROS in hCMs when co-stimulated with remdesivir: Asta 10 μM, Vc 50 μg/ml, Vb1 10 μg/ml, NAC 1 mM, GSH 25 μg/ml
Procedure: Mitochondrial‐associated ROS and intracellular ROS were measured using MitoSox Red Mitochondrial Superoxide Indicator (M‐36008, ThermoFisher) and DCFH‐DA (S0033S, Beyotime), respectively. For mitochondrial‐associated ROS measurement, hCMs were loaded with 4 × 10^−6 M MitoSox dye in Hanks' balanced salt solution buffer for 15 min at 37 °C and washed twice with PBS. The MitoSox fluorescence (excitation/emission = 510/580 nm) was detected and quantified by the Operetta CLS High‐Content Analysis System. For intracellular ROS measurement, hCMs were loaded with 10 × 10^−6 M DCFH‐DA in serum‐free medium for 20 min at 37 °C and washed twice with serum‐free medium. The DCFH fluorescence (excitation/emission = 488/525 nm) was detected and quantified by the Operetta CLS High‐Content Analysis System.

[3] = tested on: hCMs (human pluripotent stem cell-derived cardiomyocytes); test: Cytotoxicity assay, calcein-AM/PI double staining, relative cell viability; type: cell-based; settings: for effects on normal hCMs (viability, apoptosis, sarcomere organization): absence of remdesivir, 3 μM and 10 μM; for cell viability of hCMs: 6 days, escalating concentrations (0.03-3 or 1-30 × 10^−6 M), calcein-AM/PI
Procedure: (§1) hCMs were dissociated with 0.25% trypsin/EDTA (25200072, Gibco) and then seeded into 384‐well plates at the density of 8 × 10^3 cells per well. 24 h after seeding, cells were exposed to the drugs at the indicated concentrations for 6 days. Culture media were fully changed every 3 days with new drug supplementation. After drug treatment, cells were stained with calcein‐AM/PI/Hoechst for 20 min using calcein‐AM/PI double staining kit (C542, DOJINDO). Images were captured by the Operetta CLS High‐Content Analysis System (PerkinElmer). Number of live cells (calcein‐AM+/PI‐) and dead cells (PI+) was quantified by using the Harmony 4.9 software (PerkinElmer). Number of live cells was used to calculate the “relative cell viability” as follows (1) relarivecellviability=numberoflivecellsineachtreatment/numberoflivecellsinDMSOcontrol×100%

remdesivir-treated hCMs = test: High-throughput screening and validation of compounds protective against remdesivir (cell viability); type: cell-based, human; settings: for remdesivir-induced cardiotoxicity (cell viability), protection: 10 × 10^−6 or 25 × 10^−6 M remdesivir for 6 days with co-administration
Procedure: as §1
hCMs were seeded into 384‐well plates at a density of 8 × 10^3 cells per well. 24 h after seeding, the cells were treated with either 25 × 10^−6 M remdesivir alone or remdesivir with the chemicals from a Bioactive Compound Library (Topscience) consisted of 2464 natural compounds and US FDA‐approved drugs for 6 days. Chemicals at the concentration of 5 × 10^−6 M were transferred to the plates by using a Tecan Freedom EVO 150 liquid handler.

hCMs [4] = tested on: hCMs; design: method as in PMID 34142159; settings: ref 25a; cited from earlier work
[5] = tested on: hEHTs (human engineered heart tissues); test: TUNEL/α-actinin staining of hEHTs; settings: for toxicity to hEHTs: 2 × 10^−6 and 5 × 10^−6 M for 3 days
hCMs [6] = test: TUNEL apoptosis assay in hCMs; settings: 6 days
hCMs [7] = test: Sarcomere organization by α-actinin immunostaining in hCMs; settings: 6 days
[8] = cited from earlier work; for Cardiotoxic effects: reported clinical cardiotoxic effects of the repurposed drug, 10a,b, 10c, 41, 42
[9] = tested on: hEHTs (human engineered heart tissues); test: Contractile force / spontaneous contractility of hEHTs
hCMs [10] = test: Calcium measurement in hCMs under electrical field stimulation
[11] = tested on: mitochondrial permeability transition pore; settings: not told; cited from earlier work
hCMs [12] = test: Spontaneous calcium transient measurement (Fluo-4) in hCMs; settings: 6 days; for calcium transient amplitude: escalating concentrations (1-20 μM)
[13] = read-out: C max, maximum plasma concentration, ref U.S. FDA or published literature
[14] = 2 × 10^−6 M remdesivir and 2 × 10^−6 M astaxanthin for 2 days
[15] = spontaneous, escalating concentrations (lopinavir: high dosage only)

CC(C)(C)[C@H](NC(=O)C(F)(F)F)C(=O)N1C[C@H]2[C@@H]([C@H]1C(=O)N[C@H](C#N)C[C@@H]1CCNC1=O)C2(C)C [Nirmatrelvir, nirmatrelvir]
Cmax ([1]; in vivo): 6.66 µM

N[C@@H](CCC(=O)N[C@@H](CS)C(=O)NCC(=O)O)C(=O)O [reduced L‐Glutathione]
could alter the level of ROS in hCMs when co-stimulated with remdesivir (hCMs [2]): neither

C[C@H]1[C@H](OC(=O)CCC(=O)O)O[C@@H]2O[C@@]3(C)CC[C@H]4[C@H](C)CC[C@@H]1[C@@]24OO3 [Artesunate, artesunate]
Cmax ([1]; in vivo): 0.17 µM

C[C@H]1C[C@@H]2[C@H]([C@@H](O)C[C@@]3(C)[C@H]2CC[C@]3(O)C(=O)CO)[C@@]2(C)C=CC(=O)C=C12 [Methylprednisolone, methylprednisolone]
Cmax ([1]; in vivo): 1.26 µM

OCCOCCN1CCN(C2=Nc3ccccc3Sc3ccccc32)CC1 [quetiapine fumarate]
effects on normal hCMs (viability, apoptosis, sarcomere organization) [3]: little effects | remdesivir-induced cardiotoxicity (cell viability), protection (remdesivir-treated hCMs): confirmed to reduce

CC(C)C(=O)OC[C@H]1O[C@@H](n2ccc(NO)nc2=O)[C@H](O)[C@@H]1O [Molnupiravir, molnupiravir]
Cmax ([1]; in vivo): 10 to 15 µM

CC(C)CN(C[C@@H](O)[C@H](Cc1ccccc1)NC(=O)O[C@H]1CO[C@H]2OCC[C@H]21)S(=O)(=O)c1ccc(N)cc1 [Darunavir, darunavir]
Cmax [1, 13]: 12.7 µM

CCN(CC)CCCC(C)Nc1ccnc2cc(Cl)ccc12 (stereo not shown) [Chloroquine, chloroquine]
Cmax [1, 13]: 1.17 µM

NC(=O)c1nc(F)c[nH]c1=O [Favipiravir, favipiravir]
Cmax ([1]; in vivo): 115 µM

COCCCC/C(=N\OCCN)c1ccc(C(F)(F)F)cc1 [Fluvoxamine, fluvoxamine]
Cmax [1, 13]: 0.73 µM

Cc1c(-c2ccc(-c3ccccc3F)cc2)nc2ccc(F)cc2c1C(=O)O [Brequinar, brequinar]
Cmax ([1]; in vivo): 16 µM

CCC(CC)COC(=O)[C@H](C)N[P@](=O)(OC[C@H]1O[C@@](C#N)(c2ccc3c(N)ncnn23)[C@H](O)[C@@H]1O)Oc1ccccc1 [Remdesivir, remdesivir]
ROS levels in hCMs (hCMs [4]): does not alter | mitochondrial fragmentation (hCMs [4]): induce mitochondrial fragmentation | mitochondrial respiration (hCMs [4]): suppress mitochondrial respiration | toxicity to hEHTs [5]: toxic to hEHTs | apoptosis of hCMs (TUNEL) (hCMs [6]): increased apoptosis | cell viability of hCMs [3]: dose‐dependent decrease | sarcomere organization of hCMs (hCMs [7]): sarcomeric disarray | Cardiotoxic effects [8]: Cardiac arrest,^[ [10a,b] ^] heart failures,^[ [10c] ^] arrhythmias^[ [10c] ^] | hEHT function (tissue level cardiotoxicity) [9]: weaken hEHT function | abnormal beating of hEHTs (spontaneous contractility) ([9]; 2 × 10^−6 or 5 × 10^−6 M for 3 days): more severe | passive force of hEHTs ([9]; 3 days): increases of the passive force | contractile force of hEHTs ([9]; progressive stretch 0-12%, 3 days): much lower | Cmax [1, 13]: 9.03 µM | intracellular calcium handling properties of hCMs (hCMs [10]): impair | ROS level in hCMs (hCMs [2]; MitoSox and DCFH-DA): did not alter

CC1(C)C(=O)N(c2ccc(C#N)c(C(F)(F)F)c2F)C(=S)N1c1ccc(CCCc2ncco2)nc1 [Proxalutamide, proxalutamide]
Cmax [1, 13]: 29 µM

CC(=O)N[C@@H](CS)C(=O)O [N‐acetylcysteine]
could alter the level of ROS in hCMs when co-stimulated with remdesivir (hCMs [2]): neither

CCN(CCO)CCCC(C)Nc1ccnc2cc(Cl)ccc12 (stereo not shown) [Hydroxychloroquine, hydroxychloroquine]
Cardiotoxic effects [8]: QTc prolongation^[ [41] ^] | Cmax ([1]; in vivo): 1.35 µM

CC1=C(/C=C/C(C)=C/C=C/C(C)=C/C=C/C=C(C)/C=C/C=C(C)/C=C/C2=C(C)C(=O)[C@@H](O)CC2(C)C)C(C)(C)C[C@H](O)C1=O [astaxanthin]
cell apoptosis in hEHTs exposed to remdesivir [5, 14]: remarkably decreased | effects on normal hCMs (viability, apoptosis, sarcomere organization) [3]: little effects | opening of mitochondrial permeability transition pore [11]: inhibit the opening | decrease in contractile force induced by remdesivir in hEHTs [9, 14]: significantly resolved | proportion of abnormal beating induced by remdesivir in hEHTs [9, 14]: significantly resolved | frequency of abnormal beating caused by remdesivir (hCMs [10]; 10 × 10^−6 M remdesivir plus 10 × 10^−6 M astaxanthin, 6 days): relieved dramatically | remdesivir-induced alterations in calcium transient duration (hCMs [12]; 10 × 10^−6 M remdesivir plus 10 × 10^−6 M astaxanthin): reversed | could alter the level of ROS in hCMs when co-stimulated with remdesivir (hCMs [2]): neither | protective effect against remdesivir compared with the other hits (remdesivir-treated hCMs): most prominent protective effect | remdesivir-induced cardiotoxicity (cell viability), protection (remdesivir-treated hCMs): confirmed to reduce

CCOC(=O)C1=C[C@@H](OC(CC)CC)[C@H](NC(C)=O)[C@@H](N)C1 [oseltamivir]
associated adverse cardiac effect [8]: tachycardia

CC[C@H]1OC(=O)[C@H](C)[C@@H](O[C@H]2C[C@@](C)(OC)[C@@H](O)[C@H](C)O2)[C@H](C)[C@@H](O[C@@H]2O[C@H](C)C[C@H](N(C)C)[C@H]2O)[C@](C)(O)C[C@@H](C)CN(C)[C@H](C)[C@@H](O)[C@]1(C)O [Azithromycin, azithromycin]
Cardiotoxic effects [8]: Ventricular arrhythmias^[ [42] ^] | Cmax [1, 13]: 0.67 µM

CC(C)c1nc(CN(C)C(=O)N[C@H](C(=O)N[C@@H](Cc2ccccc2)C[C@H](O)[C@H](Cc2ccccc2)NC(=O)OCc2cncs2)C(C)C)cs1 [Ritonavir, ritonavir]
toxicity to hEHTs [5]: toxic to hEHTs | apoptosis of hCMs (TUNEL) (hCMs [6]): increased apoptosis | sarcomere organization of hCMs (hCMs [7]): sarcomeric disarray | Cardiotoxic effects [8]: QTc prolongation and arrhythmias^[ [9] ^] | Cmax ([1]; in vivo): 1.32 µM | intracellular calcium handling properties of hCMs (hCMs [10]): impair | calcium transient amplitude (hCMs [12]; spontaneous): tended to decrease

ivermectin
associated adverse cardiac effect [8]: tachycardia | Cmax [1, 13]: 0.049 µM

O=C1O[C@H]([C@@H](O)CO)C(O)=C1O [vitamin C]
could alter the level of ROS in hCMs when co-stimulated with remdesivir (hCMs [2]): neither

C[C@@H]1CCN(C(=O)CC#N)C[C@@H]1N(C)c1ncnc2[nH]ccc12 [Tofacitinib, tofacitinib]
Cmax [1, 13]: 0.135 µM

Cc1cccc(C)c1OCC(=O)N[C@@H](Cc1ccccc1)[C@@H](O)C[C@H](Cc1ccccc1)NC(=O)[C@H](C(C)C)N1CCCNC1=O [Lopinavir, lopinavir]
toxicity to hEHTs [5]: toxic to hEHTs | apoptosis of hCMs (TUNEL) (hCMs [6]): increased apoptosis | cell viability of hCMs [3]: dose‐dependent decrease | sarcomere organization of hCMs (hCMs [7]): sarcomeric disarray | Cmax ([1]; in vivo): 42.1 µM | intracellular calcium handling properties of hCMs (hCMs [10]): impair | calcium transient amplitude (hCMs [12]; spontaneous): tended to decrease | time to 50% decay of the calcium transients (hCMs [12]; [15]): significantly increased | time to peak of the calcium transients (hCMs [12]; [15]): significantly increased

CC(=O)Oc1ccccc1C(=O)Nc1ncc([N+](=O)[O-])s1 [Nitazoxanide, nitazoxanide]
Cmax ([1]; in vivo): 17.5 µM

N#CC[C@H](C1CCCC1)n1cc(-c2ncnc3[nH]ccc23)cn1 [Ruxolitinib, ruxolitinib]
Cmax ([1]; in vivo): 7.1 µM

Cc1ncc(C[n+]2csc(CCO)c2C)c(N)n1 [vitamin B1]
could alter the level of ROS in hCMs when co-stimulated with remdesivir (hCMs [2]): neither

CON=C(C(=O)NC1C(=O)N2C(C(=O)O)=C(CSC(=O)c3ccco3)CSC12)c1csc(N)n1 (stereo not shown) [ceftiofur hydrochloride]
effects on normal hCMs (viability, apoptosis, sarcomere organization) [3]: little effects | remdesivir-induced cardiotoxicity (cell viability), protection (remdesivir-treated hCMs): confirmed to reduce

CCS(=O)(=O)N1CC(CC#N)(n2cc(-c3ncnc4[nH]ccc34)cn2)C1 [Baricitinib, baricitinib]
Cmax [1, 13]: 3.69 µM
